Laboratory results: ChEMBL document CHEMBL3885861, “Open TG-GATES”

Species: Rattus norvegicus
Assay: Open TG-GATES - Regimen: Daily Repeat
Type: toxicity, organism-based, Sprague-Dawley
Parameters: regimen Daily Repeat, gender Male, age 6 weeks
Conditions: in vivo, po, 2000 mg/kg, route gavage, dose level High; for APTT / Bas / Eos / Fbg / Hb / Ht / Lym / MCH / MCHC / MCV / Mono / Neu / PT / Plat / RBC / Ret / WBC: tissue Blood; for KIDNEY_L / KIDNEY_R / KIDNEY_TOTAL: tissue Kidney; for LIVER: tissue Liver; for A/G / ALP / ALT / AST / BUN / CRE / Ca / Cl / DBIL / GLC / IP / K / LDH / Na / PL / RALB / TBIL / TC / TG / TP / gamma-GTP: tissue Plasma

With `COc1ccc(O)c(C(C)(C)C)c1.COc1ccc(O)cc1C(C)(C)C` [BUTYLATED HYDROXYANISOLE] the TERMINAL_BW (72 h, time 3 day) was 199.9 g, the APTT (72 h, time 3 day) was 18.9 s and the Bas (72 h, time 3 day) was 0.2%. The Eos (72 h, time 3 day) was 0.7%, the Fbg (72 h, time 3 day) was 288 mg/dL and the Hb (72 h, time 3 day) was 13.9 g/dL. For the same compound, the Ht (72 h, time 3 day) was 40.3%, the Lym (72 h, time 3 day) was 78.1% and the MCH (72 h, time 3 day) was 20.7 pg. For the same compound, the MCHC (72 h, time 3 day) was 34.6%, the MCV (72 h, time 3 day) was 59.8 fL and the Mono (72 h, time 3 day) was 2.8%. It also gave a Neu (72 h, time 3 day) of 17.5%, a PT (72 h, time 3 day) of 11.8 s and a Plat (72 h, time 3 day) of 152.4 x10_4/uL. For the same compound, the RBC (72 h, time 3 day) was 673.2 x10_4/ul, the Ret (72 h, time 3 day) was 2.1% and the WBC (72 h, time 3 day) was 93.2 x10_2/uL. The KIDNEY_L (72 h, time 3 day) was 0.9 g, the KIDNEY_R (72 h, time 3 day) was 0.9 g and the KIDNEY_TOTAL (72 h, time 3 day) was 1.8 g. For the same compound, the LIVER (72 h, time 3 day) was 12.3 g, the A/G (72 h, time 3 day) was 0.8 and the ALP (72 h, time 3 day) was 1414.4 IU/L. It also gave an ALT (72 h, time 3 day) of 69.4 IU/L, an AST (72 h, time 3 day) of 76.4 IU/L and a BUN (72 h, time 3 day) of 14.2 mg/dL. It also gave a CRE (72 h, time 3 day) of 0.2 mg/dL, a Ca (72 h, time 3 day) of 10.9 mg/dL and a Cl (72 h, time 3 day) of 108.2 meq/L. For the same compound, the DBIL (72 h, time 3 day) was 0.036 mg/dL, the GLC (72 h, time 3 day) was 152 mg/dL and the IP (72 h, time 3 day) was 5.5 mg/dL. It also gave a K (72 h, time 3 day) of 3.6 meq/L, an LDH (72 h, time 3 day) of 70.2 IU/L and a Na (72 h, time 3 day) of 143 meq/L. It also gave a PL (72 h, time 3 day) of 197 mg/dL, an RALB (72 h, time 3 day) of 2.5 g/dL and a TBIL (72 h, time 3 day) of 0.09 mg/dL. The TC (72 h, time 3 day) was 113 mg/dL, the TG (72 h, time 3 day) was 106.4 mg/dL and the TP (72 h, time 3 day) was 5.5 g/dL. The gamma-GTP (72 h, time 3 day) was 2.8 IU/L, the TERMINAL_BW ([…], time 7 day) was 225.2 g and the TERMINAL_BW ([…], time 14 day) was 262.1 g. The TERMINAL_BW ([…], time 28 day) was 342.7 g, the APTT ([…], time 7 day) was 15.8 s and the Bas ([…], time 7 day) was 0.3%. For the same compound, the Eos ([…], time 7 day) was 0.5%, the Fbg ([…], time 7 day) was 316.8 mg/dL and the Hb ([…], time 7 day) was 13.2 g/dL. It also gave a Ht ([…], time 7 day) of 38.2%, a Lym ([…], time 7 day) of 76.9% and an MCH ([…], time 7 day) of 20.2 pg. It also gave an MCHC ([…], time 7 day) of 34.6%, an MCV ([…], time 7 day) of 58.3 fL and a Mono ([…], time 7 day) of 3.4%. It also gave a Neu ([…], time 7 day) of 18.2%, a PT ([…], time 7 day) of 11.6 s and a Plat ([…], time 7 day) of 176.3 x10_4/uL. It also gave an RBC ([…], time 7 day) of 655.8 x10_4/ul, a Ret ([…], time 7 day) of 4.1% and a WBC ([…], time 7 day) of 146.4 x10_2/uL. The APTT ([…], time 14 day) was 18.4 s, the Bas ([…], time 14 day) was 0.2% and the Eos ([…], time 14 day) was 0.6%. The Fbg ([…], time 14 day) was 295.6 mg/dL, the Hb ([…], time 14 day) was 13.6 g/dL and the Ht ([…], time 14 day) was 39.4%. It also gave a Lym ([…], time 14 day) of 71.9%, an MCH ([…], time 14 day) of 19.7 pg and an MCHC ([…], time 14 day) of 34.6%. It also gave an MCV ([…], time 14 day) of 56.9 fL, a Mono ([…], time 14 day) of 2.6% and a Neu ([…], time 14 day) of 23.8%. It also gave a PT ([…], time 14 day) of 12.1 s, a Plat ([…], time 14 day) of 130.9 x10_4/uL and an RBC ([…], time 14 day) of 693.8 x10_4/ul. For the same compound, the Ret ([…], time 14 day) was 3.8%, the WBC ([…], time 14 day) was 103.7 x10_2/uL and the APTT ([…], time 28 day) was 22.8 s. For the same compound, the Bas ([…], time 28 day) was 0.4%, the Eos ([…], time 28 day) was 0.7% and the Fbg ([…], time 28 day) was 317.2 mg/dL. The Hb ([…], time 28 day) was 14.7 g/dL, the Ht ([…], time 28 day) was 41.8% and the Lym ([…], time 28 day) was 75.1%. The MCH ([…], time 28 day) was 19 pg, the MCHC ([…], time 28 day) was 35.3% and the MCV ([…], time 28 day) was 53.8 fL. For the same compound, the Mono ([…], time 28 day) was 2.1%, the Neu ([…], time 28 day) was 21% and the PT ([…], time 28 day) was 12.5 s. For the same compound, the Plat ([…], time 28 day) was 129.2 x10_4/uL, the RBC ([…], time 28 day) was 778.2 x10_4/ul and the Ret ([…], time 28 day) was 2.2%. For the same compound, the WBC ([…], time 28 day) was 110.2 x10_2/uL, the KIDNEY_L ([…], time 7 day) was 0.9 g and the KIDNEY_R ([…], time 7 day) was 0.9 g. It also gave a KIDNEY_TOTAL ([…], time 7 day) of 1.8 g, a KIDNEY_L ([…], time 14 day) of 1 g and a KIDNEY_R ([…], time 14 day) of 1 g. It also gave a KIDNEY_TOTAL ([…], time 14 day) of 2 g, a KIDNEY_L ([…], time 28 day) of 1.2 g and a KIDNEY_R ([…], time 28 day) of 1.2 g. It also gave a KIDNEY_TOTAL ([…], time 28 day) of 2.4 g, an LIVER ([…], time 7 day) of 12.6 g and an LIVER ([…], time 14 day) of 15.3 g. It also gave an LIVER ([…], time 28 day) of 19.6 g, an A/G ([…], time 7 day) of 0.8 and an ALP ([…], time 7 day) of 797 IU/L. For the same compound, the ALT ([…], time 7 day) was 44.8 IU/L, the AST ([…], time 7 day) was 61.2 IU/L and the BUN ([…], time 7 day) was 17 mg/dL. The CRE ([…], time 7 day) was 0.2 mg/dL, the Ca ([…], time 7 day) was 11.5 mg/dL and the Cl ([…], time 7 day) was 105.4 meq/L. For the same compound, the DBIL ([…], time 7 day) was 0.032 mg/dL, the GLC ([…], time 7 day) was 157 mg/dL and the IP ([…], time 7 day) was 7.7 mg/dL. The K ([…], time 7 day) was 3.4 meq/L, the LDH ([…], time 7 day) was 62.8 IU/L and the Na ([…], time 7 day) was 143.8 meq/L. The PL ([…], time 7 day) was 180 mg/dL, the RALB ([…], time 7 day) was 2.7 g/dL and the TBIL ([…], time 7 day) was 0.066 mg/dL. For the same compound, the TC ([…], time 7 day) was 102.6 mg/dL, the TG ([…], time 7 day) was 97.2 mg/dL and the TP ([…], time 7 day) was 6.1 g/dL. It also gave a gamma-GTP ([…], time 7 day) of 2.4 IU/L, an A/G ([…], time 14 day) of 0.8 and an ALP ([…], time 14 day) of 1011.2 IU/L. The ALT ([…], time 14 day) was 39.4 IU/L, the AST ([…], time 14 day) was 59.2 IU/L and the BUN ([…], time 14 day) was 18.4 mg/dL. For the same compound, the CRE ([…], time 14 day) was 0.2 mg/dL, the Ca ([…], time 14 day) was 11.2 mg/dL and the Cl ([…], time 14 day) was 105.6 meq/L. The DBIL ([…], time 14 day) was 0.026 mg/dL, the GLC ([…], time 14 day) was 159.8 mg/dL and the IP ([…], time 14 day) was 6.2 mg/dL. The K ([…], time 14 day) was 3.4 meq/L, the LDH ([…], time 14 day) was 43.6 IU/L and the Na ([…], time 14 day) was 144.8 meq/L. For the same compound, the PL ([…], time 14 day) was 204.4 mg/dL, the RALB ([…], time 14 day) was 2.8 g/dL and the TBIL ([…], time 14 day) was 0.062 mg/dL. For the same compound, the TC ([…], time 14 day) was 108 mg/dL, the TG ([…], time 14 day) was 153.6 mg/dL and the TP ([…], time 14 day) was 6.2 g/dL. It also gave a gamma-GTP ([…], time 14 day) of 3 IU/L, an A/G ([…], time 28 day) of 0.7 and an ALP ([…], time 28 day) of 696 IU/L. It also gave an ALT ([…], time 28 day) of 36.6 IU/L, an AST ([…], time 28 day) of 58 IU/L and a BUN ([…], time 28 day) of 19.8 mg/dL. It also gave a CRE ([…], time 28 day) of 0.2 mg/dL, a Ca ([…], time 28 day) of 11.3 mg/dL and a Cl ([…], time 28 day) of 104.8 meq/L. The DBIL ([…], time 28 day) was 0.022 mg/dL, the GLC ([…], time 28 day) was 174.8 mg/dL and the IP ([…], time 28 day) was 5.6 mg/dL. For the same compound, the K ([…], time 28 day) was 3.5 meq/L, the LDH ([…], time 28 day) was 58.2 IU/L and the Na ([…], time 28 day) was 145.8 meq/L. It also gave a PL ([…], time 28 day) of 198.8 mg/dL, an RALB ([…], time 28 day) of 2.8 g/dL and a TBIL ([…], time 28 day) of 0.068 mg/dL. For the same compound, the TC ([…], time 28 day) was 109 mg/dL, the TG ([…], time 28 day) was 121 mg/dL and the TP ([…], time 28 day) was 6.6 g/dL. It also gave a gamma-GTP ([…], time 28 day) of 2.6 IU/L.
